The values that follow come from patent publication US11691949B2, “Quinoline sulfonamide compounds and their use as antibacterial agents” (OTAGO INNOVATION LIMITED, priority 2017, dated 2023).

Converted amounts (≈) assume the structure as drawn. Like-named read-outs stand apart in the source and are kept apart here. Some results are limits rather than exact numbers.

What all share (format): cell-based
For one assay, the system named is S. uberis ATCC 19436. The experiment in a line: MIC by broth microdilution, S. uberis. As to conditions: Streptococcus uberis, read-out: S. uberis ATCC 19436 MIC. In outline: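 This broth microdilution assay used S. uberis ATCC 19436 in Todd Hewitt Broth, with zinc sulphate heptahydrate added where required to a final 50 μM. Inhibitor concentration ranges came from two-fold serial dilutions in 96-well flat bottom plates at 200 μl. Approximately 5×10^5 cfu/mL cells were incubated for 24 h at 37° C. and 200 rpm. Wells were then read at OD600 on a Varioskan Flash reader.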

A further assay relates to S. aureus ATCC 6538. Briefly: MIC by broth microdilution, S. aureus. As to conditions: Staphylococcus aureus, read-out: S. aureus ATCC 6538 MIC. Summed up: (§1)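 Two-fold serial dilutions were tested in broth at ~5×10^5 cfu/mL: S. aureus in TSB or CAMHB, E. coli in LB or CAMHB, with 50 μM zinc sulphate added as required. After 24 h at 37° C, 200 rpm, MIC was the lowest concentration showing no growth by OD600.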
(In general: Broth dilution looks for growth in wells or tubes with falling amounts of substance.)

A further assay relates to E. coli ATCC 10596. The experiment in a line: MIC by broth microdilution, E. coli. The note with it: Escherichia coli, read-out: E. coli ATCC 10536 MIC. Summed up: as §1
[1] abbreviates: ATCC 10536 / ATCC 10596, No Zinc.
[2] abbreviates: ATCC 10536 / ATCC 10596, Zinc (50 μM).

For `C#CCNCc1ccc2cccc(NS(=O)(=O)c3ccc(C(F)(F)F)cc3)c2n1` [ZDR098, N-(2-((Prop-2-yn-1-ylamino)methyl)quinolin-8-yl)-4-(trifluoromethyl)benzenesulfonamide], the MIC was 64 µg/mL (≈ 153 µM) in the assay on S. uberis ATCC 19436 (ATCC19436, No Zinc); 0.125 µg/mL (≈ 0.298 µM) in the assay with S. uberis ATCC 19436 (ATCC19436, Zinc (50 μM)); 64 µg/mL (≈ 153 µM) in the assay on S. aureus ATCC 6538 (ATCC6538, No Zinc); above 256 µg/mL in the assay on S. aureus ATCC 6538 (ATCC6538, Zinc (50 μM)); above 256 µg/mL in the assay with E. coli ATCC 10596 (setting [1]); above 256 µg/mL with E. coli ATCC 10596 (setting [2]).
Take `CN(C)Cc1ccc2cccc(NS(=O)(=O)C3CC3)c2n1` [ZDR323, N-(2-((Dimethylamino)methyl)quinolin-8-yl)cyclopropanesulfonamide]: the MIC in the assay on S. uberis ATCC 19436 (ATCC19436, No Zinc) is above 256 µg/mL; in the assay on S. uberis ATCC 19436 (ATCC19436, Zinc (50 μM)), 1 µg/mL (≈ 3.27 µM); with S. aureus ATCC 6538 (ATCC6538, No Zinc) it was above 256 µg/mL; with S. aureus ATCC 6538 (ATCC6538, Zinc (50 μM)) it was 256 µg/mL (≈ 838 µM); in the assay with E. coli ATCC 10596 (setting [1]), above 256 µg/mL; with E. coli ATCC 10596 (setting [2]), above 256 µg/mL.
For the compound `O=S(=O)(Nc1cccc2ccc(CNCCOCCOCCO)nc12)c1ccc(C(F)(F)F)cc1` [ZDR130, N-(2-(((2-(2-(2-Hydroxyethoxy)ethoxy)ethyl)amino)methyl)quinolin-8-yl)-4-(trifluoromethyl)benzenesulfonamide], the MIC in the assay on S. uberis ATCC 19436 (ATCC19436, No Zinc) amounted to 64 µg/mL (≈ 125 µM); in the assay with S. uberis ATCC 19436 (ATCC19436, Zinc (50 μM)), 1 µg/mL (≈ 1.95 µM); with S. aureus ATCC 6538 (ATCC6538, No Zinc), 128 µg/mL (≈ 249 µM); in the assay with S. aureus ATCC 6538 (ATCC6538, Zinc (50 μM)), 256 µg/mL (≈ 499 µM); with E. coli ATCC 10596 (setting [1]), 256 µg/mL (≈ 499 µM); with E. coli ATCC 10596 (setting [2]), 256 µg/mL (≈ 499 µM).
`CN(C)Cc1ccc2cccc(NS(=O)(=O)CCC(F)(F)F)c2n1` [ZDR316, N-(2-((Dimethylamino)methyl)quinolin-8-yl)-3,3,3-trifluoropropane-1-sulfonamide]: the MIC in the assay on S. uberis ATCC 19436 (ATCC19436, No Zinc) was above 256 µg/mL; in the assay on S. uberis ATCC 19436 (ATCC19436, Zinc (50 μM)) it was 0.125 µg/mL (≈ 0.346 µM); with S. aureus ATCC 6538 (ATCC6538, No Zinc), above 256 µg/mL; with S. aureus ATCC 6538 (ATCC6538, Zinc (50 μM)), above 256 µg/mL; in the assay on E. coli ATCC 10596 (setting [1]) it was above 256 µg/mL; in the assay with E. coli ATCC 10596 (setting [2]), above 256 µg/mL.
For `COCCOCCNCc1ccc2cccc(NS(=O)(=O)c3ccc(C(F)(F)F)cc3)c2n1` [ZDR131, N-(2-(((2-(2-Methoxyethoxy)ethyl)amino)methyl)quinolin-8-yl)-4-(trifluoromethyl)benzenesulfonamide], the MIC turned out to be 64 µg/mL (≈ 132 µM) in the assay with S. uberis ATCC 19436 (ATCC19436, No Zinc); 1 µg/mL (≈ 2.07 µM) with S. uberis ATCC 19436 (ATCC19436, Zinc (50 μM)); 64 µg/mL (≈ 132 µM) in the assay with S. aureus ATCC 6538 (ATCC6538, No Zinc); 128 µg/mL (≈ 265 µM) in the assay on S. aureus ATCC 6538 (ATCC6538, Zinc (50 μM)); 256 µg/mL (≈ 529 µM) with E. coli ATCC 10596 (setting [1]); 256 µg/mL (≈ 529 µM) in the assay on E. coli ATCC 10596 (setting [2]).
Consider `CN(C)Cc1ccc2cccc(NS(=O)(=O)N3CCOCC3)c2n1` [ZDR192, N-(2-((Dimethylamino)methyl)quinolin-8-yl)morpholine-4-sulfonamide], for which the MIC with S. uberis ATCC 19436 (ATCC19436, No Zinc) was above 256 µg/mL; with S. uberis ATCC 19436 (ATCC19436, Zinc (50 μM)), 1 µg/mL (≈ 2.85 µM); with S. aureus ATCC 6538 (ATCC6538, No Zinc) it was above 256 µg/mL; in the assay with S. aureus ATCC 6538 (ATCC6538, Zinc (50 μM)), above 256 µg/mL; with E. coli ATCC 10596 (setting [1]), above 256 µg/mL; in the assay with E. coli ATCC 10596 (setting [2]), above 256 µg/mL.
For the compound `O=S(=O)(Nc1cccc2ccc(CNc3ccccc3)nc12)c1ccc(C(F)(F)F)cc1` [ZDR108, N-(2-((Phenylamino)methyl)quinolin-8-yl)-4-(trifluoromethyl)benzenesulfonamide], the MIC is above 256 µg/mL in the assay on S. uberis ATCC 19436 (ATCC19436, No Zinc); 0.25 µg/mL (≈ 0.546 µM) in the assay on S. uberis ATCC 19436 (ATCC19436, Zinc (50 μM)); 64 µg/mL (≈ 140 µM) in the assay on S. aureus ATCC 6538 (ATCC6538, No Zinc); above 256 µg/mL in the assay on S. aureus ATCC 6538 (ATCC6538, Zinc (50 μM)); above 256 µg/mL in the assay on E. coli ATCC 10596 (setting [1]); above 256 µg/mL in the assay on E. coli ATCC 10596 (setting [2]).
`CCCN(CCC)Cc1ccc2cccc(NS(=O)(=O)c3ccc(C(F)(F)F)cc3)c2n1` [ZDR409, N-(2-((Dipropylamino)methyl)quinolin-8-yl)-4-(trifluoromethyl)benzenesulfonamide]: the minimum inhibitory concentration (MIC) was 256 µg/mL (≈ 550 µM) in the assay on S. uberis ATCC 19436 (ATCC19436, No Zinc); 0.125 µg/mL (≈ 0.269 µM) in the assay on S. uberis ATCC 19436 (ATCC19436, Zinc (50 μM)); 64 µg/mL (≈ 137 µM) in the assay on S. aureus ATCC 6538 (ATCC6538, No Zinc); 256 µg/mL (≈ 550 µM) in the assay with S. aureus ATCC 6538 (ATCC6538, Zinc (50 μM)); above 256 µg/mL in the assay on E. coli ATCC 10596 (setting [1]); above 256 µg/mL in the assay with E. coli ATCC 10596 (setting [2]).
For `CN(C)Cc1ccc2cccc(NS(=O)(=O)c3cccc(C(F)(F)F)c3)c2n1` [ZDR074, N-(2-((Dimethylamino)methyl)quinolin-8-yl)-3-(trifluoromethyl)benzenesulfonamide], the MIC is above 256 µg/mL in the assay on S. uberis ATCC 19436 (ATCC19436, No Zinc); 0.0625 µg/mL (≈ 0.153 µM) in the assay on S. uberis ATCC 19436 (ATCC19436, Zinc (50 μM)); above 256 µg/mL in the assay on S. aureus ATCC 6538 (ATCC6538, No Zinc); above 256 µg/mL with S. aureus ATCC 6538 (ATCC6538, Zinc (50 μM)); 256 µg/mL (≈ 625 µM) with E. coli ATCC 10596 (setting [1]); 256 µg/mL (≈ 625 µM) with E. coli ATCC 10596 (setting [2]).
With `COC(=O)c1cccc(S(=O)(=O)Nc2cccc3ccc(CN(C)C)nc23)c1` [ZDR308, Methyl 3-(N-(2-((dimethylamino)methyl)quinolin-8-yl)sulfamoyl)benzoate], the MIC is 256 µg/mL (≈ 641 µM) in the assay with S. uberis ATCC 19436 (ATCC19436, No Zinc); 0.25 µg/mL (≈ 0.626 µM) with S. uberis ATCC 19436 (ATCC19436, Zinc (50 μM)); 256 µg/mL (≈ 641 µM) in the assay with S. aureus ATCC 6538 (ATCC6538, No Zinc); above 256 µg/mL with S. aureus ATCC 6538 (ATCC6538, Zinc (50 μM)); 256 µg/mL (≈ 641 µM) in the assay with E. coli ATCC 10596 (setting [1]); above 256 µg/mL in the assay with E. coli ATCC 10596 (setting [2]).
`CN(C)Cc1ccc2cccc(NS(=O)(=O)c3cccc([N+](=O)[O-])c3)c2n1` [ZDR313, N-(2-((Dimethylamino)methyl)quinolin-8-yl)-3-nitrobenzenesulfonamide]: the MIC with S. uberis ATCC 19436 (ATCC19436, No Zinc) is 128 µg/mL (≈ 331 µM); in the assay with S. uberis ATCC 19436 (ATCC19436, Zinc (50 μM)) it was 0.25 µg/mL (≈ 0.647 µM); with S. aureus ATCC 6538 (ATCC6538, No Zinc), 128 µg/mL (≈ 331 µM); in the assay on S. aureus ATCC 6538 (ATCC6538, Zinc (50 μM)) it was above 256 µg/mL; in the assay on E. coli ATCC 10596 (setting [1]), above 256 µg/mL; in the assay on E. coli ATCC 10596 (setting [2]) it was above 256 µg/mL.

A word on the MIC: it is the smallest concentration in the dilution series that meets the test's criterion for growth inhibition.
